Tested on: choroidal neovascularization
Assay: Choroidal neovascularization model (argon laser scarring, fluorescein leakage scoring)
Type: in vivo, rats
Conditions: rat eye, laser-induced, treated on day 0
Method: Groups of rats were neovascularized by argon laser scarring on an eye. At the same time (day 0), the eye was immediately treated with the cobalamin-paclitaxel bioconjugate (CT-101) prepared in accordance with Example 1. Two concentrations, one higher and one lower, were tested. The treatment regimen also included a vehicle and KENACORT® RETARD (4% triamcinolone acetonide), as a positive control. The treated eyes were evaluated for inhibition of neovascularization on days 7, 14 and 21 by infusing the eye with fluorescein and scoring the leakage from each spot. The leakage of fluorescein on the photographies of the angiograms from each spot were evaluated by two examiners using an HRA (Heidelberg's Retinal Angiograph) in a masked fashion and graded as follows:
Score 1: slightly stained;
Score 2: moderate stained;
Score 3: strongly stained.

B12-5′-OCONH(CH2)5CO-Phe-Lys-PABC-7-Taxol [CT-101]
inhibition of neovascularization (fluorescein leakage score) (Day 14, both concentrations (higher and lower)): measurable effect | inhibition of neovascularization (fluorescein leakage score) (effect over 7 days relative to vehicle and positive control): marked angiogenic effect relative to the vehicle over 7 days, and was comparable in effect to the positive control

— patent US20120053144A1, “Cobalamin Taxane Bioconjugates For Treating Eye Disease” (Osiris Therapeutics, Inc., priority 2009, published 2012)
